Reference: patent US20070112068A1, “Nitrile compound and its use in pest control” (priority 2003, published 2007)

Assays:
Type in all cases: in vivo
Formica fusca japonica = test: Experimental Example 23: treated filter paper on cup lid, Formica fusca japonica; conditions: 0.1 ml of 5% (w/v) acetone solution on filter paper on lid; after 7 days
Method: A 5% (w/v) solution of the present compound (31) in acetone is prepared. 0.1 ml of the solution is added dropwise to a filter paper with 2 cm×2 cm and then air-dried. 10 imagoes of Formica fusca japonica are released in a plastic cup having a diameter of 12.5 cm and a height of 8 cm. After feed and water are placed therein, the cup is closed with a lid. The aforementioned pesticide-treated filter paper is attached to the inner surface of the lid. In addition, the inside wall of the cup is coated with talc for preventing the climbing of ants. This cup is kept at 25° C.

Blattella germanica [1] = test: Experimental Example 14: topical application, Blattella germanica; conditions: 1 μl of 1% (w/v) acetone solution onto sternum of thorax of female imagoes; after 7 days
Method: 1% (w/v) solutions of the present compounds (4), (20), (22), (23), (24), (29), (30), (31), (35), (36), (37), (38), (46), (53), (54), (56), (57), (59), (61), (66), (67), (68), (69), (70), (71), (79), (81), (83), (84), (89), and (90) in acetone were prepared. Onto the sternum of the thorax of female imagoes of Blattella germanica, 1 μl of the acetone solution was added dropwise. The imagoes were transferred to a plastic cup having a diameter of about 9 cm and a height of about 4.5 cm and left together with feed and water at 25° C. After 7 days, the number of surviving Blattella germanica was examined and the death rate of the pest was calculated. 10 imagoes of Blattella germanica were put in a cup and three replicate experiments were performed.

Culex pipiens pallens = test: Experimental Example 27: fan-ventilated knitted fabric preparation, Culex pipiens pallens; conditions: preparation of Formulation Example 10 ventilated by electric fan; 20 minutes exposure, after 24 hours
Method: A preparation of the present compound (31) prepared according to Formulation Example 10 is set at the upper part of an electric fun shown in FIG. 5 and then placed on the center of the floor of a chamber having 70 cm (width)×70 cm (depth)×70 cm (height). After the electric fan is operated to initiate to ventilate the preparation, about 20 female imagoes of Culex pipiens pallens are released in the chamber. After 20 minutes, all test pests are collected, placed in a plastic cup together with absorbent cotton impregnated with 5% sugar water, and left at 25° C.

Clogmia albipunctata = test: Experimental Example 9: treated filter paper suspended in glass chamber, Clogmia albipunctata; conditions: 2.5 ml of 2% (w/v) acetone solution on filter paper; 70 cm cube chamber; 2 hours exposure, 24 hours later
Method: (§1) A 2% (w/v) solution of the present compound (31) in acetone was prepared. Onto a filter paper with 10 cm×12.5 cm, 2.5 ml of the solution was added dropwise uniformly and then air-dried. This filter paper was suspended from the center of the ceiling of a glass chamber with 70 cm (width)×70 cm (depth)×70 cm (height) and therein 20 imagoes of Clogmia albipunctata were released. After 2 hours, all test pests were collected, put into a plastic cup together with absorbent cotton impregnated with 5% sugar water, and then left at 25° C. After 24 hours, the number of surviving Clogmia albipunctata was examined and the death rate was calculated (2 repetitions).

Megaselia spiracularis = test: Experimental Example 8: treated filter paper suspended in glass chamber, Megaselia spiracularis; conditions: 2.5 ml of 2% (w/v) acetone solution on filter paper; 70 cm cube chamber; 2 hours exposure, 24 hours later
Method: as §1, with “Megaselia spiracularis” for “Clogmia albipunctata”, “in” for “into”, “calculated.” for “calculated (2 repetitions).”

Musca domestica = test: Experimental Example 11: treated filter paper in Peet-Grady chamber, Musca domestica; conditions: 5 ml of 1% (w/v) acetone solution on filter paper; 1.8 m Peet-Grady chamber; 1 hour exposure, 24 hours later
Method: A 1% (w/v) solution of the present compound (31) in acetone was prepared. Onto a filter paper with 10 cm×25 cm, 5 ml of the solution was added dropwise uniformly and then air-dried. This filter paper was suspended from the center of the ceiling center of a Peet-Grady chamber with 1.8 m (width)×1.8 m (depth)×1.8 m (height) and therein about 50 imagoes of Musca domestica were released. After 1 hour, all test pests were collected, put into a plastic cup together with absorbent cotton impregnated with 5% sugar water, and then left at 25° C. After 24 hours, the number of surviving Musca domestica was examined and the death rate was calculated.

Blattalla germanica = test: Experimental Example 3: treated filter paper with sucrose bait, German cockroach; conditions: 500 ppm, 0.7 ml on filter paper; two male imagoes; after 6 days
Method: A filter paper having a diameter of 5.5 cm was spread on the bottom of a polyethylene cup having a diameter of 5.5 cm and 0.7 ml of the experimental pesticidal solution was added dropwise onto the filter paper. As a bait 30 mg of sucrose was uniformly placed on the filter paper. Into the polyethylene cup, two male Blattalla germanica imagoes were released and the cup was sealed with a lid. After 6 days, the number of surviving Blattalla germanica was examined and the death rate of the pest was calculated.

[2] = test system: Haemaphysalis longicornis; test: Experimental Example 7: treated polypropylene film pouch, Haemaphysalis longicornis; conditions: 0.22 ml of 0.25% (w/v) methanol solution on film; 10 young mites; after 48 hours
Method: A 0.25% (w/v) solution of the present compound (31) in methanol was prepared. Onto one side of a polypropylene film having 5.7 cm (height)×16.5 cm (width), 0.22 ml of the solution was added dropwise uniformly (except for 5 mm width from the edges of the film) and then air-dried. Thereafter, the film was folded in half widthwise in a way that the side containing the present compound became the inner face of the folded film. Then, the two longer sides (5 mm width each) of the folded film were heat-sealed to obtain a pouch. 10 young mites of Haemaphysalis longicornis were put into the polypropylene film pouch. The opening part of the polypropylene film pouch was closed with a clip. After 48 hours, the number of surviving Haemaphysalis longicornis was examined and the death rate of the pest was calculated.

Blattella germanica [3] = test: Experimental Example 22: treated filter paper suspended in chamber, Blattella germanica; conditions: 10 mL of 10% (w/v) acetone solution on filter paper; 70 cm cube chamber; after 72 hours
Method: A 10% (w/v) solution of the present compound (31) in acetone is prepared. 10 mL of the solution is uniformly added dropwise to a filter paper with 10 cm×25 cm and then air-dried. The filter paper is suspended from the center of the ceiling of a chamber with 70 cm (width)×70 cm (depth)×70 cm (height). After 20 imagoes (10 males and 10 females) of Blattella germanica are released, the door of the chamber is closed. Feed and water are placed in the glass chamber.

## N#CC(C#N)(CCC(F)(F)F)CC(F)(F)C(F)(F)C(F)(F)C(F)F [(31)]
Formica fusca japonica
  pesticidal effect: pesticidal effect on Formica fusca japonica is confirmed
Blattella germanica [1]
  death rate of the pest: 100%
Culex pipiens pallens
  pesticidal effect: pesticidal effect on Culex pipiens pallens is confirmed
Clogmia albipunctata
  death rate of the pest: 83%
Megaselia spiracularis
  death rate of the pest: 100%
Musca domestica
  death rate of the pest: 92%
Blattalla germanica
  death rate of the pest: 100%
[2]
  death rate of the pest: 100%
Blattella germanica [3]
  pesticidal effect: pesticidal effect on Blattella germanica is confirmed
